Calls of active or inactive are those of the source. No cut-off for these calls is given here.
Tests used:
[1] = target: T1, ATP-dependent translocase ABCB1 (Homo sapiens, UniProt P08183); assay: Reversal of P-gp mediated multidrug resistance in human HepG2/Dox cells assessed as potentiation of doxorubicin-induced cell growth inhibition at 10 uM measured after 48 hrs by MTT assay (reference value: 24%); type: cell-based
[2] = target: T1, ATP-dependent translocase ABCB1; assay: Reversal of P-gp mediated multidrug resistance in human MCF7/ADM cells assessed as potentiation of doxorubicin-induced cell growth inhibition at 10 uM measured after 48 hrs by MTT assay (reference value: 5%); type: cell-based
[3] = target: T1, ATP-dependent translocase ABCB1; assay: Reversal of P-gp mediated multidrug resistance in human MCF7/ADM cells assessed as potentiation of doxorubicin-induced cell growth inhibition at 10 uM measured after 48 hrs by MTT assay; type: cell-based
[4] = Cytotoxicity against human MCF7/ADM cells assessed as reduction in cell viability at 10 uM measured after 48 hrs by MTT assay; type: cell-based
[5] = Cytotoxicity against human HepG2/DOX cells assessed as reduction in cell viability at 10 uM measured after 48 hrs by MTT assay; type: cell-based
[6] = target: T1, ATP-dependent translocase ABCB1; assay: Reversal of P-gp mediated multidrug resistance in human HepG2/Dox cells assessed as potentiation of doxorubicin-induced cell growth inhibition at 10 uM measured after 48 hrs by MTT assay; type: cell-based
[7] = target: T1, ATP-dependent translocase ABCB1; assay: Reversal of P-gp mediated multidrug resistance in human HepG2/DOX cells assessed as potentiation of taxol-induced cytotoxicity at 5 to 10 uM by MTT assay; type: cell-based; details: TDE = time-dependent effect
[8] = target: T1, ATP-dependent translocase ABCB1; assay: Reversal of P-gp mediated multidrug resistance in human HepG2/DOX cells assessed as potentiation of doxorubicin-induced cytotoxicity at 5 to 10 uM by MTT assay; type: cell-based; details: TDE = time-dependent effect
[9] = target: T1, ATP-dependent translocase ABCB1; assay: Reversal of P-gp mediated multidrug resistance in human MCF7/ADM cells assessed as potentiation of doxorubicin-induced cytotoxicity at 5 to 10 uM by MTT assay; type: cell-based; details: TDE = time-dependent effect
[10] = target: T1, ATP-dependent translocase ABCB1; assay: Reversal of P-gp mediated multidrug resistance in human MCF7/ADM cells assessed as fold reduction in doxorubicin IC50 at 10 uM measured within 48 hrs by MTT assay relative to control; type: cell-based
[11] = target: T1, ATP-dependent translocase ABCB1; assay: Reversal of P-gp mediated multidrug resistance in human MCF7/ADM cells assessed as fold reduction in doxorubicin IC50 at 5 uM measured within 48 hrs by MTT assay relative to control; type: cell-based
[12] = target: T1, ATP-dependent translocase ABCB1; assay: Reversal of P-gp mediated multidrug resistance in human HepG2/DOX cells assessed as fold reduction in doxorubicin IC50 at 10 uM measured within 48 hrs by MTT assay relative to control; type: cell-based
[13] = Cytotoxicity against human MCF7/ADM cells assessed as cell viability at 10 uM measured after 48 hrs by MTT assay relative to control; type: cell-based; details: read-out: Activity
[14] = Cytotoxicity against human HepG2/DOX cells assessed as cell viability at 10 uM measured after 48 hrs by MTT assay relative to control; type: cell-based; details: read-out: Activity
MCF7 = assay: Cytotoxicity against human MCF7 cells assessed as cell viability at 5 to 50 uM measured after 48 hrs by MTT assay; type: cell-based; details: mcf7, 48 h
HepG2 = assay: Cytotoxicity against human HepG2 cells assessed as cell viability at 5 to 50 uM measured after 48 hrs by MTT assay; type: cell-based; details: hepg2, 48 h
[15] = target: T1, ATP-dependent translocase ABCB1; assay: Reversal of P-gp mediated drug efflux in human HepG2/Dox cells assessed as increase in intracellular doxorubicin accumulation at 10 uM preincubated for 4 hrs followed by doxorubicin addition measured after 1 hr incubation by fluorescence microscopic analysis; type: cell-based
[16] = target: T1, ATP-dependent translocase ABCB1; assay: Reversal of P-gp mediated drug efflux in human HepG2/Dox cells assessed as increase in intracellular Rhodamine123 accumulation at 10 uM preincubated for 4 hrs followed by Rh123 addition measured after 1 hr incubation by fluorescence microscopic analysis; type: cell-based
[17] = target: T1, ATP-dependent translocase ABCB1; assay: Reversal of P-gp mediated drug efflux in human HepG2/Dox cells assessed as increase in intracellular doxorubicin accumulation at 5 to 10 uM preincubated for 4 hrs followed by doxorubicin addition measured after 1 hr incubation by flow cytometry analysis; type: cell-based
[18] = target: T1, ATP-dependent translocase ABCB1; assay: Reversal of P-gp mediated drug efflux in human HepG2/Dox cells assessed as increase in intracellular Rhodamine123 accumulation at 5 to 10 uM preincubated for 4 hrs followed by Rh123 addition measured after 1 hr incubation by flow cytometry analysis; type: cell-based
[19] = target: T1, ATP-dependent translocase ABCB1; assay: Reversal of P-gp mediated drug efflux in human MCF7/ADM cells assessed as increase in intracellular doxorubicin accumulation at 10 uM preincubated for 4 hrs followed by doxorubicin addition measured after 1 hr incubation by fluorescence microscopic analysis; type: cell-based
[20] = target: T1, ATP-dependent translocase ABCB1; assay: Reversal of P-gp mediated drug efflux in human MCF7/ADM cells assessed as increase in intracellular Rhodamine123 accumulation at 10 uM preincubated for 4 hrs followed by Rh123 addition measured after 1 hr incubation by fluorescence microscopic analysis; type: cell-based
[21] = target: T1, ATP-dependent translocase ABCB1; assay: Inhibition of P-gp mediated doxorubicin efflux in human HepG2/Dox cells at 5 to 10 uM preincubated for 4 hrs followed by co-incubation with doxorubicin for 2 hrs followed by doxorubicin wash-out and measured after 120 mins incubation with drug containing culture medium by fluorescence based analysis; type: cell-based
[22] = target: T1, ATP-dependent translocase ABCB1; assay: Inhibition of P-gp mediated doxorubicin efflux in human MCF7/ADM cells at 5 to 10 uM preincubated for 4 hrs followed by co-incubation with doxorubicin for 2 hrs followed by doxorubicin wash-out and measured after 120 mins incubation with drug containing culture medium by fluorescence based analysis; type: cell-based
Homo sapiens [23] = species: Homo sapiens; assay: Effect on P-gp expression in human MCF7/ADM cells at 5 to 10 uM measured after 48 hrs by Western blot analysis; type: functional, cell-based
Homo sapiens [24] = species: Homo sapiens; assay: Effect on P-gp expression in human HepG2/Dox cells at 5 to 10 uM measured after 48 hrs by Western blot analysis; type: functional, cell-based
[25] = target: T1, ATP-dependent translocase ABCB1; assay: Stimulation of P-gp ATPase activity (unknown origin) at 5 to 10 uM incubated for 40 mins by P-gp-Glo luminescence assay
[26] = Cytotoxicity against human AC16 cells assessed as cell survival at 50 uM measured after 72 hrs by MTT assay relative to control; type: cell-based; details: read-out: Activity
Homo sapiens [27] = assay: In vivo reversal of P-gp mediated drug resistance in human HepG2/Dox cells xenografted in BALB/c nude mouse assessed as reduction in tumour growth at 25 mg/kg, iv co-administered with doxorubicin every 3rd day for 12 days; type: functional, organism-based
Homo sapiens [28] = assay: In vivo reversal of P-gp mediated drug resistance in human HepG2/Dox cells xenografted in BALB/c nude mouse assessed as tumour growth at 25 mg/kg, ip administered daily; type: functional, organism-based
[29] = Toxicity in BALB/c nude mouse xenografted with human HepG2/Dox cells assessed as effect on body weight at 25 mg/kg, ip administered daily; type: organism-based; details: in vivo
[30] = Toxicity in BALB/c nude mouse xenografted with human HepG2/Dox cells assessed as effect on doxorubicin-induced body weight decline at 25 mg/kg, iv coadministered with doxorubicin every 3rd day for 12 days; type: organism-based; details: in vivo, 288 h
[31] = Cardiotoxicity in BALB/c nude mouse xenografted with human HepG2/Dox cells assessed as effect on doxorubicin-induced myocardial cell enlargement at 25 mg/kg, iv cotreated with doxorubicin every 3rd day for 12 days by hematoxylin and eosin staining based assay; type: toxicity, organism-based; details: in vivo, 288 h
[32] = Cardiotoxicity in BALB/c nude mouse xenografted with human HepG2/Dox cells assessed as effect on myocardial cells at 25 mg/kg, ip administered daily by hematoxylin and eosin staining based assay; type: toxicity, organism-based; details: in vivo
[33] = Toxicity in spleen of BALB/c nude mouse xenografted with human HepG2/Dox cells assessed as blood extravasation at 25 mg/kg, iv cotreated with doxorubicin every 3rd day for 12 days by hematoxylin and eosin staining based assay; type: organism-based; details: in vivo, 288 h
[34] = Toxicity in spleen of BALB/c nude mouse xenografted with human HepG2/Dox cells assessed as inflammation at 25 mg/kg, iv cotreated with doxorubicin every 3rd day for 12 days by hematoxylin and eosin staining based assay; type: organism-based; details: in vivo, 288 h
[35] = Toxicity in liver of BALB/c nude mouse xenografted with human HepG2/Dox cells at 25 mg/kg, iv cotreated with doxorubicin every 3rd day for 12 days by hematoxylin and eosin staining based assay; type: organism-based; details: in vivo, 288 h
[36] = Toxicity in liver of BALB/c nude mouse xenografted with human HepG2/Dox cells at 25 mg/kg, ip administered daily by hematoxylin and eosin staining based assay; type: organism-based; details: in vivo
[37] = Toxicity in lung of BALB/c nude mouse xenografted with human HepG2/Dox cells at 25 mg/kg, iv cotreated with doxorubicin every 3rd day for 12 days by hematoxylin and eosin staining based assay; type: organism-based; details: in vivo, 288 h
[38] = Toxicity in lung of BALB/c nude mouse xenografted with human HepG2/Dox cells at 25 mg/kg, ip administered daily by hematoxylin and eosin staining based assay; type: organism-based; details: in vivo
[39] = Toxicity in kidney of BALB/c nude mouse xenografted with human HepG2/Dox cells at 25 mg/kg, iv cotreated with doxorubicin every 3rd for 12 days by hematoxylin and eosin staining based assay; type: organism-based; details: in vivo, 288 h
[40] = Toxicity in kidney of BALB/c nude mouse xenografted with human HepG2/Dox cells at 25 mg/kg, ip administered daily by hematoxylin and eosin staining based assay; type: organism-based; details: in vivo

T1 sequence (P08183 whole entry): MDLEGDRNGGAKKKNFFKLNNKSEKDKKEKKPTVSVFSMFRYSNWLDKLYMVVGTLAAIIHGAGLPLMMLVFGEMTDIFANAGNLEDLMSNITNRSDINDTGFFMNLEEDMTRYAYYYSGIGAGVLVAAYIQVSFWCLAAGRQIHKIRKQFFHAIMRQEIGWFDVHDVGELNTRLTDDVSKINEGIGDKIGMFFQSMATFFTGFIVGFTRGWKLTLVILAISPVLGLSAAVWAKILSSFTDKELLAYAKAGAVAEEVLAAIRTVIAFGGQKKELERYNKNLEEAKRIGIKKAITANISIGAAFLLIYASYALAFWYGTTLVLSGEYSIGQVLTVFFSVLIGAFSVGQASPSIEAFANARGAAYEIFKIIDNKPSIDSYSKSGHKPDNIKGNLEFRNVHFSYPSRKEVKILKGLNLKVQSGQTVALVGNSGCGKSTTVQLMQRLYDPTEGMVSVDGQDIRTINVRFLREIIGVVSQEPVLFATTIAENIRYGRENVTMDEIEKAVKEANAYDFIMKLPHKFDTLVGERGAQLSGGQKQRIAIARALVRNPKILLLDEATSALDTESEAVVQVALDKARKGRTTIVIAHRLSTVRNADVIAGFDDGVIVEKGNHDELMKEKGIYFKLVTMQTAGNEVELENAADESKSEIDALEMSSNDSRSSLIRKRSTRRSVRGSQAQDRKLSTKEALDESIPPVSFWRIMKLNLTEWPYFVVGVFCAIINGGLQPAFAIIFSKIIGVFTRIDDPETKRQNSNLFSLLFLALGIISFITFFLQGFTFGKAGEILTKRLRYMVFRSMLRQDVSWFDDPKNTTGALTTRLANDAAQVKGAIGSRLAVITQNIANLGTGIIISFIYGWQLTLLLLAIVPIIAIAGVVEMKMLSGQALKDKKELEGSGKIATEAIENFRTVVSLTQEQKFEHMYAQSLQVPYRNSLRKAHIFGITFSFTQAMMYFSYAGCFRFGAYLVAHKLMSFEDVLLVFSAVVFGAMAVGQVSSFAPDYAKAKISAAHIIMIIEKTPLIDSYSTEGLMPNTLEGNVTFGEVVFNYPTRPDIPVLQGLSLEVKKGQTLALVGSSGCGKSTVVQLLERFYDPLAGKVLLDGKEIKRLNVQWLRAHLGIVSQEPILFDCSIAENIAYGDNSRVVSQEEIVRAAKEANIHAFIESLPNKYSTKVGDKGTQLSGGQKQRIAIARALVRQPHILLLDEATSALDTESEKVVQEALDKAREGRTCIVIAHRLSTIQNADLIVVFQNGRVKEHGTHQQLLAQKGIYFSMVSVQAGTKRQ

COc1ccc(CCN(C)CCCC(C#N)(c2ccc(OC)c(OC)c2)C(C)C)cc1OC (centres undefined) [VERAPAMIL]
inhibition at 10 µM [1]: 84%
inhibition at 10 µM [2]: 70%

O=C1C=C2C=C[C@@H]3C[C@@]2(O1)[C@H]1CCCCN31 [SECURININE]
inhibition at 10 µM [1]: 36%
inhibition at 10 µM [2]: 31%

CCCN(C(=O)CCCCCCC(=O)N(CCC)[C@H]1CC2=CC(=O)O[C@@]23C[C@@H]1N1CCCC[C@@H]13)[C@H]1CC2=CC(=O)O[C@@]23C[C@@H]1N1CCCC[C@@H]13
inhibition at 10 µM [1]: 81%
inhibition (INH) [3]: Not Active

CCCN(C(=O)CCCCC(=O)N(CCC)[C@H]1CC2=CC(=O)O[C@]23C[C@H]1N1CCCC[C@H]13)[C@H]1CC2=CC(=O)O[C@]23C[C@H]1N1CCCC[C@H]13
Activity [4]: Toxic
Activity [5]: Toxic
inhibition (INH) [6]: Active
inhibition (INH) [3]: Active

CCCN(C(=O)CCCCCCC(=O)N(CCC)[C@H]1CC2=CC(=O)O[C@]23C[C@H]1N1CCCC[C@H]13)[C@H]1CC2=CC(=O)O[C@]23C[C@H]1N1CCCC[C@H]13
inhibition at 10 µM [1]: 85%
inhibition (INH) [7]: Tde
inhibition (INH) [8]: Tde
inhibition (INH) [9]: Tde
fold change (FC) [10]: 126.4
fold change (FC) [11]: 10.4
fold change (FC) [12]: 231
viability at 48 h, 10 µM [13]: > 90%
viability at 48 h, 10 µM [14]: > 90%
inhibition at 10 µM [2]: 78%
Activity (MCF7): Non-Toxic
Activity (HepG2): Non-Toxic
inhibition (INH) [15]: Active
inhibition (INH) [16]: Active
inhibition (INH) [17]: Active
inhibition (INH) [18]: Active
inhibition (INH) [19]: Active
inhibition (INH) [20]: Active
inhibition (INH) [21]: Active
inhibition (INH) [22]: Active
Activity (Homo sapiens [23]): inactive
Activity (Homo sapiens [24]): inactive
Activity [25]: Active
viability at 72 h, 50 µM [26]: 100%
inhibition (Homo sapiens [27]): Active
inhibition (Homo sapiens [28]): inactive
Activity [29]: Non-Toxic
Activity [30]: Non-Toxic
Activity [31]: Non-Toxic
Activity [32]: Non-Toxic
Activity [33]: Toxic
Activity [34]: Toxic
Activity [35]: Non-Toxic
Activity [36]: Non-Toxic
Activity [37]: Non-Toxic
Activity [38]: Non-Toxic
Activity [39]: Non-Toxic
Activity [40]: Non-Toxic

CCCN(C(=O)CCCCCCCC(=O)N(CCC)[C@H]1CC2=CC(=O)O[C@]23C[C@H]1N1CCCC[C@H]13)[C@H]1CC2=CC(=O)O[C@]23C[C@H]1N1CCCC[C@H]13
Activity [4]: Toxic
Activity [5]: Toxic
inhibition (INH) [6]: Active
inhibition (INH) [3]: Active

CCCN(C(=O)CCCCCC(=O)N(CCC)[C@H]1CC2=CC(=O)O[C@]23C[C@H]1N1CCCC[C@H]13)[C@H]1CC2=CC(=O)O[C@]23C[C@H]1N1CCCC[C@H]13
Activity [4]: Toxic
Activity [5]: Toxic

CCCN(C(=O)CCCCCCCCC(=O)N(CCC)[C@H]1CC2=CC(=O)O[C@]23C[C@H]1N1CCCC[C@H]13)[C@H]1CC2=CC(=O)O[C@]23C[C@H]1N1CCCC[C@H]13
Activity [4]: Toxic
Activity [5]: Toxic
inhibition (INH) [6]: Active
inhibition (INH) [3]: Active

CCCN(C(=O)CCCCC(=O)N(CCC)[C@H]1CC2=CC(=O)O[C@@]23C[C@@H]1N1CCCC[C@@H]13)[C@H]1CC2=CC(=O)O[C@@]23C[C@@H]1N1CCCC[C@@H]13
inhibition at 10 µM [1]: 79%
inhibition (INH) [3]: Not Active

CCCN(C(=O)CCCCCC(=O)N(CCC)[C@H]1CC2=CC(=O)O[C@@]23C[C@@H]1N1CCCC[C@@H]13)[C@H]1CC2=CC(=O)O[C@@]23C[C@@H]1N1CCCC[C@@H]13
inhibition at 10 µM [1]: 78%
Activity [4]: Toxic
Activity [5]: Toxic
inhibition at 10 µM [2]: 84%

Reference: ChEMBL document CHEMBL4311985, “Novel virosecurinine bivalent mimetics as potent reversal agents against P-glycoprotein-mediated multidrug resistance” (Eur J Med Chem, 2019)
